Experimental data published in PubChem BioAssay (NCI).
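1) Cells in 96-well plates. 2) Compound, 48 h, 5 concentrations. 3) Linear interpolation between surrounding doses. 4) Unreached endpoint = highest concentration. The concentration for full growth arrest is given as TGI.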

Experiments:
Assay in all cases: growth of human tumour cells (NCI), 48 h
SR leukemia = tested on: SR leukemia
OVCAR-4 ovarian = tested on: OVCAR-4 ovarian
HCT-15 colon = tested on: HCT-15 colon
OVCAR-8 ovarian = tested on: OVCAR-8 ovarian
NCI-H460 lung = tested on: NCI-H460 lung
UACC-257 melanoma = tested on: UACC-257 melanoma
IGROV1 ovarian = tested on: IGROV1 ovarian
CAKI-1 renal = tested on: CAKI-1 renal
OVCAR-3 ovarian = tested on: OVCAR-3 ovarian
M14 melanoma = tested on: M14 melanoma
ACHN renal = tested on: ACHN renal
MOLT-4 leukemia = tested on: MOLT-4 leukemia
MDA-MB-231 breast = tested on: MDA-MB-231 breast
K-562 leukemia = tested on: K-562 leukemia
786-0 renal = tested on: 786-0 renal
PC-3 prostate = tested on: PC-3 prostate
NCI-H226 lung = tested on: NCI-H226 lung
NCI-H23 lung = tested on: NCI-H23 lung
EKVX NSCLC = tested on: EKVX NSCLC
SK-MEL-5 melanoma = tested on: SK-MEL-5 melanoma
MDA-MB-435 = tested on: MDA-MB-435
SK-OV-3 ovarian = tested on: SK-OV-3 ovarian
HOP-92 NSCLC = tested on: HOP-92 NSCLC
HS 578T breast = tested on: HS 578T breast
SF-295 CNS = tested on: SF-295 CNS
LOX IMVI melanoma = tested on: LOX IMVI melanoma
BT-549 breast = tested on: BT-549 breast
HOP-62 NSCLC = tested on: HOP-62 NSCLC
A498 renal = tested on: A498 renal
MCF7 breast = tested on: MCF7 breast
RXF 393 renal = tested on: RXF 393 renal
T-47D breast = tested on: T-47D breast
SF-539 CNS = tested on: SF-539 CNS
DU-145 prostate = tested on: DU-145 prostate
COLO 205 colon = tested on: COLO 205 colon
SK-MEL-2 melanoma = tested on: SK-MEL-2 melanoma
SN12C renal = tested on: SN12C renal
HL-60(TB) leukemia = tested on: HL-60(TB) leukemia
RPMI-8226 leukemia = tested on: RPMI-8226 leukemia
MALME-3M melanoma = tested on: MALME-3M melanoma
NCI-H522 lung = tested on: NCI-H522 lung
SK-MEL-28 melanoma = tested on: SK-MEL-28 melanoma
TK-10 renal = tested on: TK-10 renal
HCT-116 colon = tested on: HCT-116 colon
U251 CNS = tested on: U251 CNS
HT29 colon = tested on: HT29 colon
SF-268 CNS = tested on: SF-268 CNS
A549 NSCLC = tested on: A549 NSCLC
CCRF-CEM leukemia = tested on: CCRF-CEM leukemia
UO-31 renal = tested on: UO-31 renal
SNB-19 CNS = tested on: SNB-19 CNS
NCI/ADR-RES ovarian = tested on: NCI/ADR-RES ovarian
SNB-75 CNS = tested on: SNB-75 CNS
OVCAR-5 ovarian = tested on: OVCAR-5 ovarian
HCC-2998 colon = tested on: HCC-2998 colon
KM12 colon = tested on: KM12 colon
UACC-62 melanoma = tested on: UACC-62 melanoma
MDA-N = tested on: MDA-N
SW-620 colon = tested on: SW-620 colon

O=[N+]([O-])c1ccc(-[n+]2ccc3ccccc3c2)c([N+](=O)[O-])c1
TGI (SR leukemia): > 100 µM
TGI (OVCAR-4 ovarian): 3.04 µM
TGI (HCT-15 colon): 3.65 µM
TGI (OVCAR-8 ovarian): 6.74 µM
TGI (NCI-H460 lung): 30.1 µM
TGI (UACC-257 melanoma): 4.08 µM
TGI (IGROV1 ovarian): 8.61 µM
TGI (CAKI-1 renal): 8.74 µM
TGI (OVCAR-3 ovarian): 6.2 µM
TGI (M14 melanoma): 8.69 µM
TGI (ACHN renal): 4.44 µM
TGI (MOLT-4 leukemia): > 21 µM
TGI (MDA-MB-231 breast): 9.01 µM
TGI (K-562 leukemia): > 23.2 µM
TGI (786-0 renal): 3.24 µM
TGI (PC-3 prostate): 13.1 µM
TGI (NCI-H226 lung): 43.6 µM
TGI (NCI-H23 lung): 6.03 µM
TGI (EKVX NSCLC): 19.4 µM
TGI (SK-MEL-5 melanoma): 6.56 µM
TGI (MDA-MB-435): 7.07 µM
TGI (SK-OV-3 ovarian): 27.1 µM
TGI (HOP-92 NSCLC): 5.29 µM
TGI (HS 578T breast): 49.6 µM
TGI (SF-295 CNS): 28.5 µM
TGI (LOX IMVI melanoma): 3.67 µM
TGI (BT-549 breast): 13.5 µM
TGI (HOP-62 NSCLC): 20 µM
TGI (A498 renal): 28 µM
TGI (MCF7 breast): 3.75 µM
TGI (RXF 393 renal): 3.83 µM
TGI (T-47D breast): 4.35 µM
TGI (SF-539 CNS): 12 µM
TGI (DU-145 prostate): 27.8 µM
TGI (COLO 205 colon): 6.29 µM
TGI (SK-MEL-2 melanoma): 25.2 µM
TGI (SN12C renal): 6.82 µM
TGI (HL-60(TB) leukemia): 3.71 µM
TGI (RPMI-8226 leukemia): 6.68 µM
TGI (MALME-3M melanoma): 9.09 µM
TGI (NCI-H522 lung): 3.74 µM
TGI (SK-MEL-28 melanoma): 8.25 µM
TGI (TK-10 renal): 3.52 µM
TGI (HCT-116 colon): 5.95 µM
TGI (U251 CNS): 17.7 µM
TGI (HT29 colon): 6.5 µM
TGI (SF-268 CNS): 11.9 µM
TGI (A549 NSCLC): 34.1 µM
TGI (CCRF-CEM leukemia): 5.38 µM
TGI (UO-31 renal): 9.28 µM
TGI (SNB-19 CNS): 34.7 µM
TGI (NCI/ADR-RES ovarian): 11.9 µM
TGI (SNB-75 CNS): 8.74 µM
TGI (OVCAR-5 ovarian): 23.9 µM
TGI (HCC-2998 colon): 26.7 µM
TGI (KM12 colon): 27.7 µM
TGI (UACC-62 melanoma): 5.53 µM
TGI (MDA-N): 6 µM

CCOC(=O)c1ccc(NC(NC(=O)CC)(C(F)(F)F)C(F)(F)F)cc1
TGI (SR leukemia): > 100 µM
TGI (HCT-15 colon): > 100 µM
TGI (OVCAR-8 ovarian): > 100 µM
TGI (NCI-H460 lung): > 100 µM
TGI (UACC-257 melanoma): > 100 µM
TGI (IGROV1 ovarian): > 100 µM
TGI (CAKI-1 renal): > 100 µM
TGI (OVCAR-3 ovarian): > 100 µM
TGI (M14 melanoma): > 100 µM
TGI (ACHN renal): > 100 µM
TGI (MOLT-4 leukemia): > 100 µM
TGI (MDA-MB-231 breast): > 100 µM
TGI (K-562 leukemia): > 100 µM
TGI (786-0 renal): > 100 µM
TGI (PC-3 prostate): > 100 µM
TGI (NCI-H226 lung): > 100 µM
TGI (NCI-H23 lung): > 100 µM
TGI (EKVX NSCLC): > 100 µM
TGI (SK-MEL-5 melanoma): > 100 µM
TGI (MDA-MB-435): > 100 µM
TGI (SK-OV-3 ovarian): > 100 µM
TGI (HOP-92 NSCLC): > 100 µM
TGI (HS 578T breast): > 100 µM
TGI (SF-295 CNS): > 100 µM
TGI (LOX IMVI melanoma): > 100 µM
TGI (BT-549 breast): > 100 µM
TGI (HOP-62 NSCLC): > 100 µM
TGI (A498 renal): > 100 µM
TGI (MCF7 breast): > 100 µM
TGI (RXF 393 renal): > 100 µM
TGI (T-47D breast): > 100 µM
TGI (SF-539 CNS): > 100 µM
TGI (DU-145 prostate): > 100 µM
TGI (COLO 205 colon): > 100 µM
TGI (SK-MEL-2 melanoma): > 100 µM
TGI (HL-60(TB) leukemia): > 100 µM
TGI (RPMI-8226 leukemia): > 100 µM
TGI (MALME-3M melanoma): > 100 µM
TGI (NCI-H522 lung): > 100 µM
TGI (SK-MEL-28 melanoma): > 100 µM
TGI (TK-10 renal): > 100 µM
TGI (SW-620 colon): > 100 µM
TGI (HCT-116 colon): > 100 µM
TGI (U251 CNS): > 100 µM
TGI (HT29 colon): > 100 µM
TGI (SF-268 CNS): > 100 µM
TGI (A549 NSCLC): > 100 µM
TGI (CCRF-CEM leukemia): > 100 µM
TGI (UO-31 renal): > 100 µM
TGI (SNB-19 CNS): > 100 µM
TGI (NCI/ADR-RES ovarian): > 100 µM
TGI (SNB-75 CNS): > 100 µM
TGI (OVCAR-5 ovarian): > 100 µM
TGI (HCC-2998 colon): > 100 µM
TGI (KM12 colon): > 100 µM
TGI (UACC-62 melanoma): > 100 µM
TGI (MDA-N): > 100 µM
